Data: ChEMBL document CHEMBL4602730, “In Vitro and in Vivo Evaluation of Membrane-Active Flavone Amphiphiles: Semisynthetic Kaempferol-Derived Antimicrobials against Drug-Resistant Gram-Positive Bacteria” (J Med Chem, 2020)
In brackets after ≈: the same amount, converted by molar mass.

Test system: Staphylococcus aureus
Assay: Antibacterial activity against methicillin-resistant Staphylococcus aureus NCTC 10442 assessed as inhibition of bacterial growth incubated for 24 hrs by broth microdilution method
Format: functional
Settings: NCTC 10442, 24 h

Row | Structure (SMILES) | MIC
1 | CCCOc1ccc(-c2oc3cc(OCCC)cc(O)c3c(=O)c2O)cc1 | > 135 µM
2 | COC(=O)[C@H](Cc1c[nH]cn1)NC(=O)COc1c(-c2ccc(OCC=C(C)C)cc2)oc2cc(OCC=C(C)C)cc(O)c2c1=O | > 79.2 µM
3 | CCN(CC)CCCCCCCCOc1c(-c2ccc(OCC=C(C)C)cc2)oc2cc(OCC=C(C)C)cc(O)c2c1=O | 82.5 µM (≈ 50 µg/mL)
4 | CC(C)=CCOc1ccc(-c2oc3cc(OCC=C(C)C)cc(O)c3c(=O)c2OCCCN2CCSCC2)cc1 | > 88.4 µM
5 | CCCCCCCCCOc1ccc(-c2oc3cc(OCCCCCCCCC)cc(O)c3c(=O)c2O)cc1 | > 92.8 µM
6 | CCN(CC)CCCCCCCCCCOc1c(-c2ccc(OCC=C(C)C)cc2)oc2cc(OCC=C(C)C)cc(O)c2c1=O | > 78.9 µM
7 | CC(C)=CCOc1ccc(-c2oc3cc(OCC=C(C)C)cc(O)c3c(=O)c2OCCCN2CCN(C)CC2)cc1 | 22.2 µM (≈ 12.5 µg/mL)
8 | CCN(CC)CCOc1c(-c2ccc(OCC=C(C)C)cc2)oc2cc(OCC=C(C)C)cc(O)c2c1=O | 95.8 µM (≈ 50 µg/mL)
9 | CCCN(CCC)CCCOc1c(-c2ccc(OCC=C(C)C)cc2)oc2cc(OCC=C(C)C)cc(O)c2c1=O | > 88.7 µM
10 | CCCCCCCCNCCCOc1c(-c2ccc(OCC=C(C)C)cc2)oc2cc(OCC=C(C)C)cc(O)c2c1=O | > 84.5 µM
11 | CC(C)=CCOc1ccc(-c2oc3cc(OCC=C(C)C)cc(O)c3c(=O)c2OCCCN2CCCC2)cc1 | 23.4 µM (≈ 12.5 µg/mL)
12 | O=c1c(O)c(-c2ccc(O)cc2)oc2cc(O)cc(O)c12 [KAEMPFEROL] | > 175 µM
13 | CCCCCOc1ccc(-c2oc3cc(OCCCCC)cc(O)c3c(=O)c2O)cc1 | > 117 µM
14 | CCCC[N+](C)(CCCC)CCCOc1c(-c2ccc(OCC=C(C)C)cc2)oc2cc(OCC=C(C)C)cc(O)c2c1=O | 34.1 µM
15 | CCN(CC)CCCCCCOc1c(-c2ccc(OCC=C(C)C)cc2)oc2cc(OCC=C(C)C)cc(O)c2c1=O | 10.8 µM (≈ 6.24 µg/mL)
16 | CCCCCNCCCOc1c(-c2ccc(OCC=C(C)C)cc2)oc2cc(OCC=C(C)C)cc(O)c2c1=O | 22.7 µM (≈ 12.5 µg/mL)
17 | CCN(CC)CCCNC(=O)COc1c(-c2ccc(OCC=C(C)C)cc2)oc2cc(OCC=C(C)C)cc(O)c2c1=O | 21.1 µM (≈ 12.5 µg/mL)
18 | CC(C)=CCOc1ccc(-c2oc3cc(OCC=C(C)C)cc(O)c3c(=O)c2OCCCN(C)C)cc1 | 12.3 µM (≈ 6.24 µg/mL)
19 | CC(C)=CCOc1ccc(-c2oc3cc(OCC=C(C)C)cc(OCC(=O)NCCCN(C)C)c3c(=O)c2OCC(=O)NCCCN(C)C)cc1 | 70.7 µM (≈ 50 µg/mL)

Test system: Staphylococcus aureus
Assay: Antibacterial activity against methicillin-resistant Staphylococcus aureus N315 assessed as inhibition of bacterial growth incubated for 24 hrs by broth microdilution method
Format: functional
Settings: N315, 24 h

Row | Structure (SMILES) | MIC
20 | CCCOc1ccc(-c2oc3cc(OCCC)cc(O)c3c(=O)c2O)cc1 | > 135 µM
21 | COC(=O)[C@H](Cc1c[nH]cn1)NC(=O)COc1c(-c2ccc(OCC=C(C)C)cc2)oc2cc(OCC=C(C)C)cc(O)c2c1=O | > 79.2 µM
22 | CCN(CC)CCCCCCCCOc1c(-c2ccc(OCC=C(C)C)cc2)oc2cc(OCC=C(C)C)cc(O)c2c1=O | 20.6 µM (≈ 12.5 µg/mL)
23 | CC(C)=CCOc1ccc(-c2oc3cc(OCC=C(C)C)cc(O)c3c(=O)c2OCCCN2CCSCC2)cc1 | > 88.4 µM
24 | CCCCCCCCCOc1ccc(-c2oc3cc(OCCCCCCCCC)cc(O)c3c(=O)c2O)cc1 | > 92.8 µM
25 | CCN(CC)CCCCCCCCCCOc1c(-c2ccc(OCC=C(C)C)cc2)oc2cc(OCC=C(C)C)cc(O)c2c1=O | > 78.9 µM
26 | CC(C)=CCOc1ccc(-c2oc3cc(OCC=C(C)C)cc(O)c3c(=O)c2OCCCN2CCN(C)CC2)cc1 | 11.1 µM (≈ 6.25 µg/mL)
27 | CCN(CC)CCOc1c(-c2ccc(OCC=C(C)C)cc2)oc2cc(OCC=C(C)C)cc(O)c2c1=O | 95.8 µM (≈ 50 µg/mL)
28 | CCCN(CCC)CCCOc1c(-c2ccc(OCC=C(C)C)cc2)oc2cc(OCC=C(C)C)cc(O)c2c1=O | > 88.7 µM
29 | CCCCCCCCNCCCOc1c(-c2ccc(OCC=C(C)C)cc2)oc2cc(OCC=C(C)C)cc(O)c2c1=O | 21.1 µM (≈ 12.5 µg/mL)
30 | CC(C)=CCOc1ccc(-c2oc3cc(OCC=C(C)C)cc(O)c3c(=O)c2OCCCN2CCCC2)cc1 | 11.7 µM (≈ 6.24 µg/mL)
31 | O=c1c(O)c(-c2ccc(O)cc2)oc2cc(O)cc(O)c12 [KAEMPFEROL] | > 175 µM
32 | CCCCCOc1ccc(-c2oc3cc(OCCCCC)cc(O)c3c(=O)c2O)cc1 | > 117 µM
33 | CCCC[N+](C)(CCCC)CCCOc1c(-c2ccc(OCC=C(C)C)cc2)oc2cc(OCC=C(C)C)cc(O)c2c1=O | 17.1 µM
34 | CCN(CC)CCCCCCOc1c(-c2ccc(OCC=C(C)C)cc2)oc2cc(OCC=C(C)C)cc(O)c2c1=O | 10.8 µM (≈ 6.24 µg/mL)
35 | CCCCCNCCCOc1c(-c2ccc(OCC=C(C)C)cc2)oc2cc(OCC=C(C)C)cc(O)c2c1=O | 11.4 µM (≈ 6.27 µg/mL)
36 | CCN(CC)CCCNC(=O)COc1c(-c2ccc(OCC=C(C)C)cc2)oc2cc(OCC=C(C)C)cc(O)c2c1=O | 10.5 µM (≈ 6.22 µg/mL)
37 | CC(C)=CCOc1ccc(-c2oc3cc(OCC=C(C)C)cc(O)c3c(=O)c2OCCCN(C)C)cc1 | 12.3 µM (≈ 6.24 µg/mL)
38 | CC(C)=CCOc1ccc(-c2oc3cc(OCC=C(C)C)cc(OCC(=O)NCCCN(C)C)c3c(=O)c2OCC(=O)NCCCN(C)C)cc1 | 70.7 µM (≈ 50 µg/mL)

Test system: Staphylococcus aureus
Assay: Antibacterial activity against Staphylococcus aureus ATCC 29213 assessed as inhibition of bacterial growth incubated for 24 hrs by broth microdilution method
Format: functional
Settings: ATCC 29213, 24 h

Row | Structure (SMILES) | MIC
39 | CCCOc1ccc(-c2oc3cc(OCCC)cc(O)c3c(=O)c2O)cc1 | > 135 µM
40 | COC(=O)[C@H](Cc1c[nH]cn1)NC(=O)COc1c(-c2ccc(OCC=C(C)C)cc2)oc2cc(OCC=C(C)C)cc(O)c2c1=O | > 79.2 µM
41 | CCN(CC)CCCCCCCCOc1c(-c2ccc(OCC=C(C)C)cc2)oc2cc(OCC=C(C)C)cc(O)c2c1=O | 82.5 µM (≈ 50 µg/mL)
42 | CC(C)=CCOc1ccc(-c2oc3cc(OCC=C(C)C)cc(O)c3c(=O)c2OCCCN2CCSCC2)cc1 | > 88.4 µM
43 | CCCCCCCCCOc1ccc(-c2oc3cc(OCCCCCCCCC)cc(O)c3c(=O)c2O)cc1 | > 92.8 µM
44 | CCN(CC)CCCCCCCCCCOc1c(-c2ccc(OCC=C(C)C)cc2)oc2cc(OCC=C(C)C)cc(O)c2c1=O | > 78.9 µM
45 | CC(C)=CCOc1ccc(-c2oc3cc(OCC=C(C)C)cc(O)c3c(=O)c2OCCCN2CCN(C)CC2)cc1 | 22.2 µM (≈ 12.5 µg/mL)
46 | CCN(CC)CCOc1c(-c2ccc(OCC=C(C)C)cc2)oc2cc(OCC=C(C)C)cc(O)c2c1=O | 95.8 µM (≈ 50 µg/mL)
47 | CCCN(CCC)CCCOc1c(-c2ccc(OCC=C(C)C)cc2)oc2cc(OCC=C(C)C)cc(O)c2c1=O | > 88.7 µM
48 | CCCCCCCCNCCCOc1c(-c2ccc(OCC=C(C)C)cc2)oc2cc(OCC=C(C)C)cc(O)c2c1=O | > 84.5 µM
49 | CC(C)=CCOc1ccc(-c2oc3cc(OCC=C(C)C)cc(O)c3c(=O)c2OCCCN2CCCC2)cc1 | 23.4 µM (≈ 12.5 µg/mL)
50 | O=c1c(O)c(-c2ccc(O)cc2)oc2cc(O)cc(O)c12 [KAEMPFEROL] | > 175 µM
51 | CCCCCOc1ccc(-c2oc3cc(OCCCCC)cc(O)c3c(=O)c2O)cc1 | > 117 µM
52 | CCCC[N+](C)(CCCC)CCCOc1c(-c2ccc(OCC=C(C)C)cc2)oc2cc(OCC=C(C)C)cc(O)c2c1=O | 17.1 µM
53 | CCN(CC)CCCCCCOc1c(-c2ccc(OCC=C(C)C)cc2)oc2cc(OCC=C(C)C)cc(O)c2c1=O | 10.8 µM (≈ 6.24 µg/mL)
54 | CCCCCNCCCOc1c(-c2ccc(OCC=C(C)C)cc2)oc2cc(OCC=C(C)C)cc(O)c2c1=O | 45.5 µM (≈ 25 µg/mL)
55 | CCN(CC)CCCNC(=O)COc1c(-c2ccc(OCC=C(C)C)cc2)oc2cc(OCC=C(C)C)cc(O)c2c1=O | 10.5 µM (≈ 6.22 µg/mL)
56 | CC(C)=CCOc1ccc(-c2oc3cc(OCC=C(C)C)cc(O)c3c(=O)c2OCCCN(C)C)cc1 | 12.3 µM (≈ 6.24 µg/mL)
57 | CC(C)=CCOc1ccc(-c2oc3cc(OCC=C(C)C)cc(OCC(=O)NCCCN(C)C)c3c(=O)c2OCC(=O)NCCCN(C)C)cc1 | 35.4 µM (≈ 25 µg/mL)

Test system: not listed separately
Assay: Induction of hemolysis in rabbit RBC incubated for 1 hr
Format: cell-based, Oryctolagus cuniculus, Erythrocyte
Settings: rabbit red blood cells (erythrocytes)

Row | Structure (SMILES) | HC50 at 1 h
58 | CCCOc1ccc(-c2oc3cc(OCCC)cc(O)c3c(=O)c2O)cc1 | > 540 µM
59 | COC(=O)[C@H](Cc1c[nH]cn1)NC(=O)COc1c(-c2ccc(OCC=C(C)C)cc2)oc2cc(OCC=C(C)C)cc(O)c2c1=O | > 317 µM
60 | CCN(CC)CCCCCCCCOc1c(-c2ccc(OCC=C(C)C)cc2)oc2cc(OCC=C(C)C)cc(O)c2c1=O | 29.4 µM
61 | CC(C)=CCOc1ccc(-c2oc3cc(OCC=C(C)C)cc(O)c3c(=O)c2OCCCN2CCSCC2)cc1 | > 354 µM
62 | CCCCCCCCCOc1ccc(-c2oc3cc(OCCCCCCCCC)cc(O)c3c(=O)c2O)cc1 | > 371 µM
63 | CCN(CC)CCCCCCCCCCOc1c(-c2ccc(OCC=C(C)C)cc2)oc2cc(OCC=C(C)C)cc(O)c2c1=O | > 316 µM
64 | CC(C)=CCOc1ccc(-c2oc3cc(OCC=C(C)C)cc(O)c3c(=O)c2OCCCN2CCN(C)CC2)cc1 | 83.3 µM
65 | CCN(CC)CCOc1c(-c2ccc(OCC=C(C)C)cc2)oc2cc(OCC=C(C)C)cc(O)c2c1=O | > 383 µM
66 | CCCN(CCC)CCCOc1c(-c2ccc(OCC=C(C)C)cc2)oc2cc(OCC=C(C)C)cc(O)c2c1=O | > 355 µM
67 | CCCCCCCCNCCCOc1c(-c2ccc(OCC=C(C)C)cc2)oc2cc(OCC=C(C)C)cc(O)c2c1=O | > 338 µM
68 | CC(C)=CCOc1ccc(-c2oc3cc(OCC=C(C)C)cc(O)c3c(=O)c2OCCCN2CCCC2)cc1 | > 375 µM
69 | CCCCCOc1ccc(-c2oc3cc(OCCCCC)cc(O)c3c(=O)c2O)cc1 | > 469 µM
70 | CCCC[N+](C)(CCCC)CCCOc1c(-c2ccc(OCC=C(C)C)cc2)oc2cc(OCC=C(C)C)cc(O)c2c1=O | 46.9 µM
71 | CCN(CC)CCCCCCOc1c(-c2ccc(OCC=C(C)C)cc2)oc2cc(OCC=C(C)C)cc(O)c2c1=O | 83.8 µM
72 | CCCCCNCCCOc1c(-c2ccc(OCC=C(C)C)cc2)oc2cc(OCC=C(C)C)cc(O)c2c1=O | 69.7 µM
73 | CCN(CC)CCCNC(=O)COc1c(-c2ccc(OCC=C(C)C)cc2)oc2cc(OCC=C(C)C)cc(O)c2c1=O | 80.3 µM
74 | CC(C)=CCOc1ccc(-c2oc3cc(OCC=C(C)C)cc(O)c3c(=O)c2OCCCN(C)C)cc1 | 228 µM
75 | CC(C)=CCOc1ccc(-c2oc3cc(OCC=C(C)C)cc(OCC(=O)NCCCN(C)C)c3c(=O)c2OCC(=O)NCCCN(C)C)cc1 | > 283 µM
